Laboratory results published in the supplement of paper PMC10307832.

Key:
Test in all cases: relative viability (nuclei count vs DMSO), 5 days (fraction); higher = more cells survive
[1] = compound: Cc1cc([C@@H](C)Nc2ccccc2C(=O)O)c2nc(N3CCOCC3)cc(=O)n2c1 [AZD6482] + Nc1nc2[nH]cc(CCc3ccc(C(=O)N[C@@H](CCC(=O)O)C(=O)O)cc3)c2c(=O)[nH]1 [Pemetrexed] (partner 0.2 µM)
Procedure, shortened: (§1)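 Cells from lung cancer lines were seeded into 1536-well plates and, one day later, dosed by pin tool. Treatments were either a single drug or a fixed dose of an anchor drug with five library-drug doses (not always all listed) in √10 steps. After 5 days, nuclei were stained in a one-step fixation (final 0.05% Triton X-100, 1% formaldehyde, 1 ug/ml Hoechst) and counted on 4× images, and relative viability is the treated-to-vehicle nuclei ratio, as the median of duplicate plates.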

[2] = compound: COc1cc2nc(N3CCCN(C)CC3)nc(NC3CCN(Cc4ccccc4)CC3)c2cc1OC + COc1cccc2cc(-c3nc([C@H]4CC[C@H](C(=O)O)CC4)n4ncnc(N)c34)[nH]c12 [OSI-027] (partner 0.5 µM)
Procedure, shortened: as §1

[3] = compound: Cc1cc([C@@H](C)Nc2ccccc2C(=O)O)c2nc(N3CCOCC3)cc(=O)n2c1 [AZD6482]
Procedure, shortened: (§2)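 Vehicle-anchored 1536-well plates of lung cancer cell lines, held overnight at 37 °C, were pinned with five library-drug doses (not always all listed) spaced by √10. No medium change followed over the next 5 days, after which the cells were fixed, permeabilised and Hoechst-stained together and imaged at 4×. Nuclei were counted with MetaXpress, and viability is treated-well nuclei over vehicle-well nuclei, taken as a median across plates. Plates passed with control CV below 25% and at least one doubling.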

[4] = compound: COc1cc2nc(N3CCCN(C)CC3)nc(NC3CCN(Cc4ccccc4)CC3)c2cc1OC
Procedure, shortened: as §2

PC-14
relative viability ([1]; first compound 0.08 µM): 0.133
relative viability ([1]; first compound 0.253 µM): 0.125
relative viability ([1]; first compound 0.8 µM): 0.115
relative viability ([1]; first compound 2.53 µM): 0.15
relative viability ([1]; first compound 8 µM): 0.135
relative viability ([2]; first compound 0.2 µM): 0.758
relative viability ([2]; first compound 0.6325 µM): 0.734
relative viability ([2]; first compound 2 µM): 0.733
relative viability ([2]; first compound 6.325 µM): 0.0418
relative viability ([3]; 0.08 µM): 0.953
relative viability ([3]; 0.253 µM): 0.972
relative viability ([3]; 0.8 µM): 1.12
relative viability ([3]; 2.53 µM): 0.849
relative viability ([3]; 8 µM): 0.979
relative viability ([4]; 0.2 µM): 0.97
relative viability ([4]; 0.6325 µM): 1.05
relative viability ([4]; 2 µM): 0.977
relative viability ([4]; 6.325 µM): 0.475

RERF-LC-KJ
relative viability ([1]; first compound 0.08 µM): 0.461
relative viability ([1]; first compound 0.253 µM): 0.459
relative viability ([1]; first compound 0.8 µM): 0.465
relative viability ([1]; first compound 2.53 µM): 0.439
relative viability ([1]; first compound 8 µM): 0.449
relative viability ([2]; first compound 0.2 µM): 0.527
relative viability ([2]; first compound 0.6325 µM): 0.586
relative viability ([2]; first compound 2 µM): 0.573
relative viability ([2]; first compound 6.325 µM): 0.383
relative viability ([3]; 0.08 µM): 0.875
relative viability ([3]; 0.253 µM): 0.888
relative viability ([3]; 0.8 µM): 0.784
relative viability ([3]; 2.53 µM): 0.878
relative viability ([3]; 8 µM): 0.763
relative viability ([4]; 0.2 µM): 0.995
relative viability ([4]; 0.6325 µM): 0.977
relative viability ([4]; 2 µM): 1.04
relative viability ([4]; 6.325 µM): 0.912

SK-LU-1
relative viability ([1]; first compound 0.253 µM): 0.906
relative viability ([1]; first compound 0.8 µM): 1.04
relative viability ([1]; first compound 2.53 µM): 0.738
relative viability ([1]; first compound 8 µM): 0.714
relative viability ([2]; first compound 0.2 µM): 0.358
relative viability ([2]; first compound 0.6325 µM): 0.302
relative viability ([2]; first compound 2 µM): 0.36
relative viability ([2]; first compound 6.325 µM): 0.179
relative viability ([3]; 0.253 µM): 0.978
relative viability ([3]; 0.8 µM): 1.03
relative viability ([3]; 2.53 µM): 0.722
relative viability ([3]; 8 µM): 0.592
relative viability ([4]; 0.2 µM): 1.01
relative viability ([4]; 0.6325 µM): 1.01
relative viability ([4]; 2 µM): 1.08
relative viability ([4]; 6.325 µM): 1.02
